Test results from patent US6509377B1, “Use of a 2-hydroxy-4-trifluoromethylbenzoic acid derivatives as inhibitors of the activation of the nuclear transcription factor NF-κB” (J. Uriach & Cia, S.A., priority 1999, dated 2003).

Tests used:
NF-κB = experiment: Activation of NF-κB induced by TNF-α in HUVEC (EMSA); assay type: cell-based, human; settings: 2 and 4 mM, TNF-α 100 U/ml, 90 minutes
Method: Human umbilical vein endothelial cells (HUVEC) were obtained by the procedure of Dejana et al. (J. Cell Biol 1987, 104(5), 1403-1411) by treatment of the umbilical vein with. 0.2% collagenase P from C. histolyticum (Boehnnger Manheim GmbH, Manheim, Germany) for 20 minutes at 37° C. Next, cells were cultured in M199 medium (Flow Lab, Herts, U.K.) containing 100 U/ml penicillin, 100 μg/ml streptomycin, 2.5 μg/ml amphotercin B and 20% fetal calf serum. Primary cultures were plated in 25 cm^2 plastic flasks. After 24 hours cells were washed to remove those cells which had not adhered to the flask surface. Then, the same medium containing 10% fetal calf serum, 50 μg/ml endothelial cell growth supplement factor and 100 μg/ml heparn was added. After culturing for 5-7 days, cells reached confluence and were detached from the flask surface with 0.05% trypsin and 0.02% EDTA (Flow Lab). The reaction was inhibited by the addition of fetal calf serum, and then cells were washed and plated again in culture medium. Cells were grown to confluence in gelatin-coated flasks. Cells used for the experiments were from passages 2-7.
In this experiment, HUVEC cells were preincubated with Triflusal and HTB, at concentrations in both cases of 2 and 4 mM. Then these cells were stimulated with 100 U/ml TNF-α (Genzyme Diagnostics, Cambridge, Mass. USA) for 90 minutes. […]

β-actin = experiment: Expression of β-actin mRNA in HUVEC (RT-PCR, constitutive control gene); assay type: cell-based, human; settings: 4 mM
Source text: Primers used for the detection of VCAM-1 mRNA by RT-PCR were designed from the human gene sequence (EMBUGenBank AC: M30257), using the Wisconsin Package Version 9.1, Genetics Computer Group (GCG), Madison, Wis. Their sequences were 5′-TGTCACTGTMGCTGCMG-3′ and 5′-TTCCAGCCTGGTTAATTC-3′, corresponding to nucleotides 1090-1108 and 1589-1572 (L. Osbom et al., Cell 1989, 59(6), 1203-1211). Total RNA was extracted from cultured cells using the guanidium isothiocyanate method (P. Chomczynski and N. Sacchi, Anal Biochem. 1987, 162(1), 156-159). cDNA first strand was synthesized from total RNA by reverse transcription reaction. […] The relative amounts of each amplified cDNA were determined by measuring the density of the bands stained with ethidium bromide using the Gel Doc documentation system and the Molecular Analyst software from Bio-Rad Laboratories, Hercules, Calif. […]
Specifically, the effect of Triflusal (4 mM) and HTB (4 mM) on the regulation of the expression of VCAM-1 mRNA induced by TNF-α (100 U/ml) in HUVEC was studied. […] The PCR products were separated by electrophoresis in a 1.8% agarose gel and were later quantified. The molecular weight of the amplification products was determined from the electrophoretic migration of DNA size standards.

SMILES	inhibition of the activation of NF-κB induced by TNF-α (NF-κB)	effect on the expression of β-actin mRNA (β-actin)
O=C(O)c1ccc(C(F)(F)F)cc1O [HTB, 2-hydroxy-4-trifluoromethylbenzoic acid]	concentration-dependently inhibit	absence of effect
CC(=O)Oc1cc(C(F)(F)F)ccc1C(=O)O [triflusal, 2-Acetyloxy-4-trifluoromethylbenzoic acid, reference compound]	concentration-dependently inhibit	absence of effect
